Patent US9880171B2, “iASPP phosphorylation and metastatic potential” (LUDWIG INSTITUTE FOR CANCER RESEARCH LTD., priority 2012, dated 2018)

Tested on: iASPP(-/-)MEFs
Test: apoptosis markers (c-PARP, c-Caspase 3) in Ras and E1A transformed iASPP(-/-) MEFs
Assay type: cell-based, mouse
Conditions: vector transfected iASPP(-/-)MEFs, 24 hours
Experimental: FIG. 9. […] A. iASPP S84D/S113D binds p53 better than WT iASPP in vitro. in vitro translated iASPP-V5 (WT) or its mutant iASPP(S84D/S113D) (S84D/S113D) (Input) were incubated with nickel beads that were pre-bound with either p53(2-193)-His (p53) or BSA (BSA) to carry out an immunoprecipitation assay (IP). The amount of iASPP that was co-immunoprecipitated with p53 was detected by an anti-V5 antibody (iASPP V5 panel) whereas the amount of p53 immunoprecipitated was detected by an anti-His antibody (p53(2-193)-His panel). B iASPP S84D/S113D binds p53 better than WT iASPP in transfected cells. iASPP-V5 (WT) or its mutant iASPP(S84D/S113D) (S84D/S113D) and p53 were co-transfected in H1299 cells (Input). […] The amount of p53 pulled down is shown in (p53 panel) whereas p53 bound iASPP was determined by anti-V5 antibody (iASPP V5 panel). […] The expression levels of known apoptosis markers were detected in immunoblotting using D214 or D175 to detect cleaved PARP (c-PARP) or caspase 3 (c-caspase 3) respectively. […] Cells were dissolved in urea buffer and apoptosis markers (cleaved PARP, caspase-3) were determined by WB.
The anti-apoptotic function of iASPP and its mutant iASPP(S84D/S113D) was tested in Ras and E1A transformed iASPP(−/−)MEFs (referred to as iASPP(−/−)MEFs). […] Apoptosis was measured by the presence of cleaved PARP (c-PARP) or active caspase 3 (c-Caspase 3). […]

COc1ccc(C2=N[C@@H](c3ccc(Cl)cc3)[C@@H](c3ccc(Cl)cc3)N2C(=O)N2CCNC(=O)C2)c(OC(C)C)c1 [Nutlin3]
apoptosis (increase in c-PARP and c-Caspase 3): apoptosis was detected
